# Activity calls are given as the source filed them. No cut-off for these calls is given here.
# Columns and labels:
# MOLM-13 [1] = experiment: Antiproliferative activity against human MOLM-13 cells incubated for 6 days by CellTiter-Glo assay; type: functional, cell-based; conditions: MOLM-13, 144 h
# Caov-3 cell line = experiment: Antiproliferative activity against human Caov-3 cells incubated for 120 hrs by CellTiter-Glo assay; type: functional, cell-based; conditions: Caov-3, 120 h
# MOLM-13 [2] = experiment: Antiproliferative activity against IFN-gamma-treated human MOLM-13 cells incubated for 7 days by CellTiter-Glo assay; type: functional, cell-based; conditions: MOLM-13, 168 h
# Kasumi 1 = experiment: Antiproliferative activity against IFN-gamma-treated human Kasumi 1 cells incubated for 6 days by CellTiter-Glo assay; type: functional, cell-based; conditions: Kasumi 1, 144 h
# NOMO-1 = experiment: Antiproliferative activity against IFN-gamma-treated human NOMO-1 cells incubated for 6 days by CellTiter-Glo assay; type: functional, cell-based; conditions: NOMO-1, 144 h
# THP-1 = experiment: Antiproliferative activity against IFN-gamma-treated human THP-1 cells incubated for 7 days by CellTiter-Glo assay; type: functional, cell-based; conditions: THP-1, 168 h
# KCL-22 = experiment: Antiproliferative activity against IFN-gamma-treated human KCL-22 cells incubated for 6 days by CellTiter-Glo assay; type: functional, cell-based; conditions: KCL-22, 144 h
# [3] = target: N6-adenosine-methyltransferase catalytic subunit (Homo sapiens, UniProt Q86U44); experiment: Inhibition of METTL3 in human MOLM-13 cells assessed as reduction in m6A methylation level at 0.1 to 50 uM measured by NanoDrop spectrophotomery analysis; type: cell-based; conditions: dose 0.1-50 µM
# N6-adenosine-methyltransferase catalytic subunit, sequence (Q86U44 whole entry): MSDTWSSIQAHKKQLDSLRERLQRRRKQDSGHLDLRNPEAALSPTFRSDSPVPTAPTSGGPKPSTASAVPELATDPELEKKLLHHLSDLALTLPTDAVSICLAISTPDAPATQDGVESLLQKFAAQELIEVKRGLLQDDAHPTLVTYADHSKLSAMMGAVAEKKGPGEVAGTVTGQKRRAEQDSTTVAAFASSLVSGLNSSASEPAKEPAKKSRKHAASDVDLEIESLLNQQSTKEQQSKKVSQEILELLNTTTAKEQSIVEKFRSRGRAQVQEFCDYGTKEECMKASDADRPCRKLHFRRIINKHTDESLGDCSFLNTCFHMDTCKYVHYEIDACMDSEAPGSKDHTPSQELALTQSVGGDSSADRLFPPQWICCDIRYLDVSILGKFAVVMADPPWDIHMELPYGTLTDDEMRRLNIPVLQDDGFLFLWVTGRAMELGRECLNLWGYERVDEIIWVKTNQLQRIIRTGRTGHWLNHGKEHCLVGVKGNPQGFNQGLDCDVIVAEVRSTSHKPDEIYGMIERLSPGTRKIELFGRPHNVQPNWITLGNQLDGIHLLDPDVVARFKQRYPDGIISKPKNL
IC50 (MOLM-13 [1]) [µM],SMILES,also measured
30,O=C(NCc1cn2cc(CNC3CCC3)ccc2n1)c1cc(=O)n2ccccc2n1,
1.33,O=C(NCc1cn2cc(CNCC34CC(C3)C4)ccc2n1)c1cc(=O)n2ccccc2n1,IC50 (Caov-3 cell line): 0.296 µM
30,CN(Cc1ccccc1)Cc1ccc2nc(CNC(=O)c3cc(=O)n4ccccc4n3)cn2c1,
30,O=C(c1cc(-c2cn(Cc3cn4cc(CNCC5CCC5)ccc4n3)nn2)c2cn[nH]c2c1)N1CCOCC1,
30,O=C(NCc1cn2cc(CCNCc3ccccc3)ccc2n1)c1cc(=O)n2ccccc2n1,
30,NC(=O)c1cc(-c2cn(Cc3cn4cc(CNCC5CCC5)ccc4n3)nn2)c2cn[nH]c2c1,
4.64,O=C(NCc1cn2cc(CNCCCc3ccccc3)ccc2n1)c1cc(=O)n2ccccc2n1,

# Continued, compound first:
SMILES,IC50 (MOLM-13 [1]) [µM],also measured
Oc1cc(-c2cn(Cc3cn4cc(CNCC5(O)CCC5)ccc4n3)nn2)c2cn[nH]c2c1,30,
CC(C)(C)NCc1ccc2nc(CNC(=O)c3cc(=O)n4ccccc4n3)cn2c1,30,
O=C(NCc1cn2cc(CNCC3CC4(CC4)C3)ccc2n1)c1cc(=O)n2ccccc2n1,30,
O=C(NCc1cn2cc(CNCCc3ccccc3)ccc2n1)c1cc(=O)n2ccccc2n1,3.9,
O=C(NCc1cn2cc(CNCc3ccccc3)ccc2n1)c1cc(=O)n2ccccc2n1,3.59,IC50 (MOLM-13 [2]): 0.847 µM; IC50 (Kasumi 1): 1.89 µM; IC50 (NOMO-1): 6.55 µM; IC50 (THP-1): 2.12 µM; IC50 (KCL-22): 14 µM
N#CCC(NCC1CCC1)c1ccc2nc(CNC(=O)c3cc(=O)n4ccccc4n3)cn2c1 (stereo not given),30,
O=C(NCc1cn2cc(CNCCC3CC(F)(F)C3)ccc2n1)c1cc(=O)n2ccccc2n1,30,
Cc1ccc2nc(CNC(=O)c3cc(=O)n4ccccc4n3)cn2c1,,inhibition [3]: Active
CN(C)C(=O)c1cc(-c2cn(Cc3cn4cc(CNCC5CCC5)ccc4n3)nn2)c2cn[nH]c2c1,30,
O=C(O)c1cc(-c2cn(Cc3cn4cc(CNCC5CCC5)ccc4n3)nn2)c2cn[nH]c2c1,30,
COC(C)(C)CNCc1ccc2nc(CNC(=O)c3cc(=O)n4ccccc4n3)cn2c1,30,
CC(C)(O)CNCc1ccc2nc(CNC(=O)c3cc(=O)n4ccccc4n3)cn2c1,30,
